≈ marks a conversion by molar mass, not a printed value. Where two headings read alike, the source gives them in different places.
How the values were obtained:
physchem [1] = type: physicochemical; conditions: for Solubility: pH 4.6
Experimental: The solutions were mixed and maintained at room temperature and a pH of about 4.6. The vials were then shaken on a rotary shaker for 24 hours.
Samples (2 mL) of both of the amorphous and crystalline solutions were withdrawn at selected time intervals (0, 0.5, 3, 5, and 24 h), filtered through a 0.2 μm filter and analyzed at room temperature using high performance liquid chromatography (HPLC) (Table 1). The solubility of the samples was calculated using the data provided in the HPLC chromatograph and techniques used by those skilled in the art and is provided in Table 3.

physchem [2] = type: physicochemical
Experimental: A 0.005 M citric acid solution containing 0.2% sodium lauryl sulfate and 0.001% calcium EDTA was adjusted to a pH of about 4.73.
The solutions were then mixed, maintained at room temperature, and shaken on a rotary shaker for about 24 to about 48 hours.
Samples (2 mL) of both the amorphous and crystalline solutions were withdrawn at 24 h and 48 h, filtered through a 0.2 μm filter and analyzed at room temperature using high performance liquid chromatography (HPLC) (Table 4). Solubilities of the samples were then calculated using the data provided in the HPLC chromatograph and techniques used by those of skilled in the art and is provided in Table 4.

[3] = 5° C., 1 Week, sample prepared by precipitation
[4] = 40° C./75% RH, 1 Week, sample prepared by precipitation
[5] = Initial, sample prepared by precipitation
[6] = RT, 1 Week, sample prepared by precipitation
[7] = 25 °C, pH 4.6, aqueous buffer, thermodynamic from solid
[8] = 25 °C, pH 4.73, aqueous with cosolvent or surfactant or cyclodextrin, thermodynamic from solid
[9] = 5° C., 1 week, sample prepared by evaporation
[10] = 5° C., 2 weeks, sample prepared by evaporation
[11] = 40° C./75% RH, 1 week, sample prepared by evaporation
[12] = 40° C./75% RH, 2 weeks, sample prepared by evaporation
[13] = Initial, sample prepared by evaporation

COC1CC2CCC(C)C(O)(O2)C(=O)C(=O)N2CCCCC2C(=O)OC(C(C)CC2CCC(OC(=O)C(C)(CO)CO)C(OC)C2)CC(=O)C(C)/C=C(\C)C(O)C(OC)C(=O)C(C)CC(C)/C=C/C=C/C=C/1C (centres unmarked) [Amorphous (batch C4), rapamycin 42-ester with 3-hydroxy-2-(hydroxymethyl)-2-methylpropionic acid]
SLI [3]: 0.15%
Strength [3]: 98.71%
Total Imp [3]: 0.44%
SECO [4]: 0.04%
SLI [4]: 0.32%
Strength [4]: 91.36%
Total Imp [4]: 0.70%
SLI [5]: 0.20%
Strength [5]: 97.93%
Total Imp [5]: 0.41%
SLI [6]: 0.12%
Strength [6]: 97.49%
Total Imp [6]: 0.37%

CO[C@H]1C[C@@H]2CC[C@@H](C)[C@@](O)(O2)C(=O)C(=O)N2CCCC[C@H]2C(=O)O[C@H]([C@H](C)C[C@@H]2CC[C@@H](OC(=O)C(C)(CO)CO)[C@H](OC)C2)CC(=O)[C@H](C)/C=C(\C)[C@@H](O)[C@@H](OC)C(=O)[C@H](C)C[C@H](C)/C=C/C=C/C=C/1C [Crystalline, rapamycin 42-ester with 3-hydroxy-2-(hydroxymethyl)-2-methylpropionic acid]
Solubility (physchem [1]; 0 h): 0 µg/mL
solubility at 0.5 h (physchem [1]; [7]): 0.26 µg/mL (≈ 0.252 µM)
solubility at 3 h (physchem [1]; [7]): 0.29 µg/mL (≈ 0.281 µM)
solubility at 5 h (physchem [1]; [7]): 0.23 µg/mL (≈ 0.223 µM)
solubility at 24 h (physchem [1]; [7]): 0.61 µg/mL (≈ 0.592 µM)
solubility at 24 h (physchem [2]; [8]): 640 µg/mL (≈ 621 µM)
solubility at 48 h (physchem [2]; [8]): 640 µg/mL (≈ 621 µM)

COC1CC2CCC(C)C(O)(O2)C(=O)C(=O)N2CCCCC2C(=O)OC(C(C)CC2CCC(OC(=O)C(C)(CO)CO)C(OC)C2)CC(=O)C(C)/C=C(\C)C(O)C(OC)C(=O)C(C)CC(C)/C=C/C=C/C=C/1C (centres unmarked) [amorphous rapamycin 42-ester with 3-hydroxy-2-(hydroxymethyl] [rapamycin 42-ester with 3-hydroxy-2-(hydroxymethyl)-2-methylpropionic acid]
Solubility relative to crystalline form (physchem [1]): 3 times
Solubility relative to crystalline form (general statement) (physchem [1]): at least 3 times
Solubility (physchem [1]): about 1.88 μg/mL
Solubility relative to crystalline form (physchem [2]): about 3.5 times
Solubility (physchem [2]; pH 4.73): about 2.17 mg/mL
Temperature up to which the amorphous form is stable: up to 5 °C

CO[C@H]1C[C@@H]2CC[C@@H](C)[C@@](O)(O2)C(=O)C(=O)N2CCCC[C@H]2C(=O)O[C@H]([C@H](C)C[C@@H]2CC[C@@H](OC(=O)C(C)(CO)CO)[C@H](OC)C2)CC(=O)[C@H](C)/C=C(\C)[C@@H](O)[C@@H](OC)C(=O)[C@H](C)C[C@H](C)/C=C/C=C/C=C/1C [batch A1, rapamycin 42-ester with 3-hydroxy-2-(hydroxymethyl)-2-methylpropionic acid]
SLI* [9]: 3.91%
Strength [9]: 95.20%
Total Imp [9]: 5.07%
SLI* [10]: 3.74%
Strength [10]: 92.56%
Total Imp [10]: 4.42%
SLI* [11]: 3.93%
Strength [11]: 94.16%
Total Imp [11]: 5.15%
SLI* [12]: 3.72%
Strength [12]: 90.55%
Total Imp [12]: 4.60%
SLI [13]: 0.19%
Strength [13]: Strength = 98.33%,
Total Imp [13]: 0.46%

— patent US7446111B2, “Amorphous rapamycin 42-ester with 3-hydroxy-2-(hydroxymethyl)-2-methylpropionic acid and its pharmaceutical compositions” (Wyeth, priority 2003, dated 2008)
